From patent publication US11497752B2, “Compounds and uses thereof” (Foghorn Therapeutics Inc., priority 2018, dated 2022)

Columns and labels:
[1] = biological target: BRG-1 (Homo sapiens, UniProt P51532); experiment: ATPase catalytic activity of BRG-1 (ADP-Glo in vitro biochemical assay); details: for BRG1 Max % Inhibition: Table 6
[2] = biological target: BRM (Homo sapiens, UniProt P51531); experiment: ATPase catalytic activity of BRM (ADP-Glo in vitro biochemical assay); details: for BRM Max % Inhibition: Table 6
Chain of BRM (P51531 whole entry): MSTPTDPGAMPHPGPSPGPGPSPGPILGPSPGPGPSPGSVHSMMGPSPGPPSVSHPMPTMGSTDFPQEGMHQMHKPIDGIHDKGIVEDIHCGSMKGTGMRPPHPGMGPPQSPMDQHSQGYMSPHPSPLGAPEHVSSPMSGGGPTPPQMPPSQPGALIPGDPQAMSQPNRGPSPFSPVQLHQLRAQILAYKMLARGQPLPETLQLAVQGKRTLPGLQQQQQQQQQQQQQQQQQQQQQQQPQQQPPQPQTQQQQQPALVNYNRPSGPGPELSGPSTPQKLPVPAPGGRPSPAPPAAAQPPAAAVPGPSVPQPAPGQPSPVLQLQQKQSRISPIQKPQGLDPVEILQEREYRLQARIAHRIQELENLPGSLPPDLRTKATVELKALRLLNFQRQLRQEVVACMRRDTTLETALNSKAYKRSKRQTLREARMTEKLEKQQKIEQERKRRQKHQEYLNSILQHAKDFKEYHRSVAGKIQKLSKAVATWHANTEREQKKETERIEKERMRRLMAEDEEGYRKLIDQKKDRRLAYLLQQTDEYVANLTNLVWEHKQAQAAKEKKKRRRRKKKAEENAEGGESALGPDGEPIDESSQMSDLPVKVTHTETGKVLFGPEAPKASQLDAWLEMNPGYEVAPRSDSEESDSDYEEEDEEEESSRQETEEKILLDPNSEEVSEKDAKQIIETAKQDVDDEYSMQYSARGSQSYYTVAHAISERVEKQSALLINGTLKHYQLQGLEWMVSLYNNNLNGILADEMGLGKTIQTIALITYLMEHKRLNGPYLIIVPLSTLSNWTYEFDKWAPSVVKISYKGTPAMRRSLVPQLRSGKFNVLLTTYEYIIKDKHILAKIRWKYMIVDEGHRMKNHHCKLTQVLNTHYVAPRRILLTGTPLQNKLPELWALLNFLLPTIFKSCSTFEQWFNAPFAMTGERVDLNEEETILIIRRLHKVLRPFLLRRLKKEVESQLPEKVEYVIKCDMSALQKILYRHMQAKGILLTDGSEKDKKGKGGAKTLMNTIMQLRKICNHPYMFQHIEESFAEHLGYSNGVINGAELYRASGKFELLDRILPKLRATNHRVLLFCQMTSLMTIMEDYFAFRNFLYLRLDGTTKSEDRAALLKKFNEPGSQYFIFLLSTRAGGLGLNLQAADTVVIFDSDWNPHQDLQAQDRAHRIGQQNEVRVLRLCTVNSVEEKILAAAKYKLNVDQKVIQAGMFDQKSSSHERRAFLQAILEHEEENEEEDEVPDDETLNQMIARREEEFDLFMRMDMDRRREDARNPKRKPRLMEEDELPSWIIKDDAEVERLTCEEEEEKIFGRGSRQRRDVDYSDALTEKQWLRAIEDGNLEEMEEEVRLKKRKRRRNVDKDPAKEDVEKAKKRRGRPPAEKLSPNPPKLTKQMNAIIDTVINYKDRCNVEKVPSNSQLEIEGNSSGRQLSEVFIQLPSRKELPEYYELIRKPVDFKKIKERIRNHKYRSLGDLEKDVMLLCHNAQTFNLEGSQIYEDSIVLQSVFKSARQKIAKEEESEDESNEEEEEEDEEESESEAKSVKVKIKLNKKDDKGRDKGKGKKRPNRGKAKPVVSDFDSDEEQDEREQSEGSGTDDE

Chain of BRG-1 (P51532 whole entry): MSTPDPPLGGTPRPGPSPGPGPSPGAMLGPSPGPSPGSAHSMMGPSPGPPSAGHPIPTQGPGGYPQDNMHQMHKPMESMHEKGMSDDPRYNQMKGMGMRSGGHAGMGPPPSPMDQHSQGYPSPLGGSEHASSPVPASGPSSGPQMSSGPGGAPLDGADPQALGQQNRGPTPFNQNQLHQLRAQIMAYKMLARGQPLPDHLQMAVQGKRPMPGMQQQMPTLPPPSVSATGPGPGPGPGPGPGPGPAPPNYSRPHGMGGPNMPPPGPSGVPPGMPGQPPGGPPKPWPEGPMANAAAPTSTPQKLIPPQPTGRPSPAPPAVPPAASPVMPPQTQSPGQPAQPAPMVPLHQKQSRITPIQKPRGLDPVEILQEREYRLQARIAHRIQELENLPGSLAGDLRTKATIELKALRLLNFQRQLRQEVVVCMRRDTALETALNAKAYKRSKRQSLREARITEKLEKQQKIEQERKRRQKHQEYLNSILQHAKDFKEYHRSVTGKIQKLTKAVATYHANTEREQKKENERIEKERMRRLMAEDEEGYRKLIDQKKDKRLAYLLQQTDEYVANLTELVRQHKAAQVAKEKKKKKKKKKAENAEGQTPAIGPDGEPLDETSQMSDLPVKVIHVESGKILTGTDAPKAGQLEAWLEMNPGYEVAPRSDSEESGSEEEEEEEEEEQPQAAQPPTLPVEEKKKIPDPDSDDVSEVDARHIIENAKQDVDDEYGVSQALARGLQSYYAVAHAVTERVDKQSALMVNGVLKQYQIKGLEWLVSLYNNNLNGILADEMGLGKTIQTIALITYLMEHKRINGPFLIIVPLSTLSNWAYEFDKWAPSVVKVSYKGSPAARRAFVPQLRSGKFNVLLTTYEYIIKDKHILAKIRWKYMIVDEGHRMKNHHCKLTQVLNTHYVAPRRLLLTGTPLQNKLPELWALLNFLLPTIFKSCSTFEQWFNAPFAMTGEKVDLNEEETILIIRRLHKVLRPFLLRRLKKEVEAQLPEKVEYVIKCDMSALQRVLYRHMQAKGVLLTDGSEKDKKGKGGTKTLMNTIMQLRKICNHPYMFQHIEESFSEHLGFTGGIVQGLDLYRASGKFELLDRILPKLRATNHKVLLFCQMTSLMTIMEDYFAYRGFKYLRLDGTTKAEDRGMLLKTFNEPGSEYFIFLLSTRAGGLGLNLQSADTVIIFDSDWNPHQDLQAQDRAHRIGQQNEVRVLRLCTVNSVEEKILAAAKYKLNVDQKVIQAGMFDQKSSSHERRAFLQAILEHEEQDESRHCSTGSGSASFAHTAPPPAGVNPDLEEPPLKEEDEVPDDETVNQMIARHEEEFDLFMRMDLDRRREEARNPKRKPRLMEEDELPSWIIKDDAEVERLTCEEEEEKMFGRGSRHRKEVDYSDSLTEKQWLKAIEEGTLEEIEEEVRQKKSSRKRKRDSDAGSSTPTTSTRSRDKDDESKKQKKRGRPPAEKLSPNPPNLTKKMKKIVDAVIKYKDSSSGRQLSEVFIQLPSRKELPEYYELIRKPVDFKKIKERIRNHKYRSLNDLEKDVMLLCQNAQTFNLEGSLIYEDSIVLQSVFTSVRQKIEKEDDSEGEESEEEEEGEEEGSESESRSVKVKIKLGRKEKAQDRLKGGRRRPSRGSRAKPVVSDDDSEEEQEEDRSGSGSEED

SMILES | IC50 [1] [nM] | BRG1 Max % Inhibition [1] [%] | IC50 [2] [nM] | BRM Max % Inhibition [2] [%]
O=C(CNC(=O)c1cnc2c(c1)CCCN2)Nc1nc(-c2cccc(-c3ccncc3)c2)cs1 [Compound 102, N-(2-oxo-2-((4-(3-(pyridin-4-yl)phenyl)thiazol-2-yl)amino)ethyl)-5,6,7,8-tetrahydro-1,8-naphthyridine-3-carboxamide] | 100 to 1000 | >80 | 100 to 1000 | >80
O=C(CNC(=O)c1ccc(N2CC(O)C2)cc1)Nc1nc(-c2cccc(-c3ccncc3)c2)cs1 [Compound 103, 4-(3-hydroxyazetidin-1-yl)-N-(2-oxo-2-((4-(3-(pyridin-4-yl)\phenyl)thiazol-2-yl)amino)ethyl)benzamide] | 1000 to 10000 | >80 | 100 to 1000 | >70
CS(=O)(=O)c1ccnc(C(=O)NCC(=O)Nc2nc(-c3cccc(-c4ccncc4)c3)cs2)c1 [Compound 104, 4-methylsulfonyl-N-[2-oxo-2-[[4-[3-(4-pyridyl)phenyl]thiazol-2-yl]amino]ethyl]pyridine-2-carboxamide] | < 100 | >60 | < 100 | >70
O=C(CNC(=O)c1ccc2c(c1)CC(O)CN2)Nc1nc(-c2cccc(-c3ccncc3)c2)cs1 (centres unmarked) [Compound 105, 3-hydroxy-N-[2-oxo-2-[[4-[3-(4-pyridyl)phenyl]thiazol-2-yl]amino]ethyl]-1,2,3,4-tetrahydroquinoline-6-carboxamide] | 100 to 1000 | >50 | 100 to 1000 | >80
CSCC[C@H](NC(=O)c1ccc(N)cc1)C(=O)Nc1nc(-c2ccc(C#N)cc2)cs1 [Compound 107, (S)-4-amino-N-(1-((4-(4-cyanophenyl)thiazol-2-yl)amino)-4-(methylthio)-1-oxobutan-2-yl)benzamide] | 1000 to 10000 | >95 | 100 to 1000 | >95
Nc1ccc(C(=O)NCC(=O)Nc2nc(-c3ccc4c(c3)OCCO4)cs2)cc1 [Compound 109, 4-amino-N-(2-((4-(2,3-dihydrobenzo[b][1,4]dioxin-6-yl)thiazol-2-yl)amino)-2-oxoethyl)benzamide] | 100 to 1000 | >90 | 100 to 1000 | >90
COC(=O)N1CCC=C(c2csc(NC(=O)CNC(=O)c3ccc(N)cc3)n2)C1 [Compound 110, methyl 3-(2-(2-(4-aminobenzamido)acetamido)thiazol-4-yl)-5,6-dihydropyridine-1(2H)-carboxylate] | 1000 to 10000 | >80 | 100 to 1000 | >80
Nc1ccc(C(=O)NCC(=O)Nc2nc(-c3ccc4c(c3)CCO4)cs2)cc1 [Compound 111, 4-amino-N-(2-((4-(2,3-dihydrobenzofuran-5-yl)thiazol-2-yl)amino)-2-oxoethyl)benzamide] | 100 to 1000 | >90 | 100 to 1000 | >90
Nc1ccc(C(=O)NCC(=O)Nc2nc(-c3ccc4c(c3)OCC4)cs2)cc1 [Compound 112, 4-amino-N-(2-((4-(2,3-dihydrobenzofuran-6-yl)thiazol-2-yl)amino)-2-oxoethyl)benzamide] | 100 to 1000 | >80 | 100 to 1000 | >90
Nc1ccc(C(=O)NCC(=O)Nc2nc(-c3ccccc3O)cs2)cc1 [Compound 114, 4-amino-N-(2-((4-(2-hydroxyphenyl)thiazol-2-yl)amino)-2-oxoethyl)benzamide] | 1000 to 10000 | >80 | 100 to 1000 | >80
Nc1ccc(C(=O)NCC(=O)Nc2nc(-c3ccc(O)cc3)cs2)cc1 [Compound 115, 4-amino-N-(2-((4-(4-hydroxyphenyl)thiazol-2-yl)amino)-2-oxoethyl)benzamide] | 100 to 1000 | >90 | 100 to 1000 | >90
CSCC[C@H](NC(=O)c1ccc(N)cc1)C(=O)Nc1nc(-c2cc(C#N)cc(-c3ccccc3)c2)cs1 [Compound 116, (S)-4-amino-N-(1-((4-(5-cyano-[1,1′-biphenyl]-3-yl)thiazol-2-yl)amino)-4-(methylthio)-1-oxobutan-2-yl)benzamide] | 100 to 1000 | >95 | 100 to 1000 | >95
CSCC[C@H](NC(=O)c1ccc(N)cc1)C(=O)Nc1nc(-c2cccc(-c3ccc(CN)cc3)c2)cs1 [Compound 118, (S)-4-amino-N-(1-((4-(4′-(aminomethyl)-[1,1′-biphenyl]-3-yl)thiazol-2-yl)amino)-4-(methylthio)-1-oxobutan-2-yl)benzamide] | 1000 to 10000 | >90 | 100 to 1000 | >90
CSCC[C@H](NC(=O)c1ccc(N)cc1)C(=O)Nc1nc(-c2ccc(C#N)c(-c3ccccc3)c2)cs1 [Compound 119, (S)-4-amino-N-(1-((4-(6-cyano-[1,1′-biphenyl]-3-yl)thiazol-2-yl)amino)-4-(methylthio)-1-oxobutan-2-yl)benzamide] | 1000 to 10000 | >95 | 100 to 1000 | >95
CSCC[C@H](NC(=O)c1ccc(N)cc1)C(=O)Nc1nc(-c2cccc(CNC(C)=O)c2)cs1 [Compound 120, (S)-N-(1-((4-(3-(acetamidomethyl)phenyl)thiazol-2-yl)amino)-4-(methylthio)-1-oxobutan-2-yl)-4-aminobenzamide] | 100 to 1000 | >90 | 100 to 1000 | >90
CSCC[C@H](NC(=O)c1ccc(N)cc1)C(=O)Nc1nc(-c2ccc(CNC(C)=O)cc2)cs1 [Compound 121, (S)-N-(1-((4-(4-(acetamidomethyl)phenyl)thiazol-2-yl)amino)-4-(methylthio)-1-oxobutan-2-yl)-4-aminobenzamide] | 100 to 1000 | >95 | 100 to 1000 | >95
COC(=O)N1CCC[C@H](c2csc(NC(=O)CNC(=O)c3ccc(N)cc3)n2)C1 [Compound 122, (S)-methyl 3-(2-(2-(4-aminobenzamido)acetamido)thiazol-4-yl)piperidine-1-carboxylate] | 1000 to 10000 | >90 | 100 to 1000 | >95
CC(=O)NCc1ccc(-c2cccc(-c3csc(NC(=O)CNC(=O)c4ccc(N)cc4)n3)c2)cc1 [Compound 123, N-(2-((4-(4′-(acetamidomethyl)-[1,1′-biphenyl]-3-yl)thiazol-2-yl)amino)-2-oxoethyl)-4-aminobenzamide] | 100 to 1000 | >80 | 100 to 1000 | >80
CC(=O)NCc1cccc(-c2cccc(-c3csc(NC(=O)CNC(=O)c4ccc(N)cc4)n3)c2)c1 [Compound 124, N-(2-((4-(3′-(acetamidomethyl)-[1,1′-biphenyl]-3-yl)thiazol-2-yl)amino)-2-oxoethyl)-4-aminobenzamide] | 100 to 1000 | >95 | 100 to 1000 | >95
C[C@H](NC(=O)c1ccc(N)cc1)C(=O)Nc1nc(-c2cccc(-c3ccncc3)c2)cs1 [Compound 125, (S)-4-amino-N-(1-oxo-1-((4-(3-(pyridin-4-yl)phenyl)thiazol-2-yl)amino)propan-2-yl)benzamide] | < 100 | >95 | < 100 | >95
CNc1ccc(C(=O)NCC(=O)Nc2nc(-c3cccc(-c4ccncc4)c3)cs2)cc1 [Compound 126, 4-(methylamino)-N-(2-oxo-2-((4-(3-(pyridin-4-yl)phenyl)thiazol-2-yl)amino)ethyl)benzamide] | < 100 | >80 | < 100 | >80
COc1ccc(-c2cccc(-c3csc(NC(=O)CNC(=O)c4ccc(N)cc4)n3)c2)cn1 [Compound 127, 4-amino-N-(2-((4-(3-(6-methoxypyridin-3-yl)phenyl)thiazol-2-yl)amino)-2-oxoethyl)benzamide] | 100 to 1000 | >80 | 100 to 1000 | >90
CSCC[C@H](NC(=O)c1ccc(N)cc1)C(=O)Nc1nc(-c2cccc(-c3nnco3)c2)cs1 [Compound 128, (S)-N-(1-((4-(3-(1,3,4-oxadiazol-2-yl)phenyl)thiazol-2-yl)amino)-4-(methylthio)-1-oxobutan-2-yl)-4-aminobenzamide] | < 100 | >95 | < 100 | >95
CC(=O)N(C)Cc1cccc(-c2cccc(-c3csc(NC(=O)CNC(=O)c4ccc(N)cc4)n3)c2)c1 [Compound 129, 4-amino-N-(2-((4-(3′-((N-methylacetamido)methyl)-[1,1′-biphenyl]-3-yl)thiazol-2-yl)amino)-2-oxoethyl)benzamide] | 100 to 1000 | >95 | 100 to 1000 | >95
CNC(=O)c1ccc(-c2cccc(-c3csc(NC(=O)CNC(=O)c4ccc(N)cc4)n3)c2)cc1 [Compound 130, 3′-(2-(2-(4-aminobenzamido)acetamido)thiazol-4-yl)-N-methyl-[1,1′-biphenyl]-4-carboxamide] | 1000 to 10000 | >70 | 100 to 1000 | >70
CN(C)C(=O)c1cccc(-c2cccc(-c3csc(NC(=O)CNC(=O)c4ccc(N)cc4)n3)c2)c1 [Compound 131, 3′-(2-(2-(4-aminobenzamido)acetamido)thiazol-4-yl)-N,N-dimethyl-[1,1′-biphenyl]-3-carboxamide] | < 100 | >95 | < 100 | >95
